“And” between values parts separate entries of the source, which are not always exact repeats. Equal entries are not always repeated. Inconclusive results and toxic doses are left out.
Tested on: P1534 leukemia ip, CD2F1 mice, survival T/C
Test: NCI In Vivo Anticancer Drug Screen. Data for tumor model P1534 Leukemia (intraperitoneal) in CD2F1 (CDF1) mice
Conditions: higher = longer survival
Description: The antitumor activity of compounds was measured in mice bearing transplantable tumors. Survival or tumor size were measured and the results are expressed as the measurement made in the treated group (T) divided by the measurement made in the vehicle treated control group (C). The tumor model used in this assay is P1534 Leukemia (intraperitoneal) in CD2F1 (CDF1) mice

[1] = endpoint: mean survival time, dose: 50.0 mg/kg/injection, schedule: Q01DX010 (ip), vehicle: saline
[2] = endpoint: mean survival time, dose: 100.0 mg/kg/injection, schedule: Q01DX010 (ip), vehicle: saline

## CC[C@]1(O)C[C@H]2CN(CCc3c([nH]c4ccccc34)[C@@](C(=O)OC)(c3cc4c(cc3OC)N(C=O)[C@H]3[C@@](O)(C(=O)OC)[C@H](OC(C)=O)[C@]5(CC)C=CCN6CC[C@]43[C@@H]65)C2)C1
endpoint: mean survival time, dose: 0.02 mg/kg/injection, schedule: Q01DX010 (ip), vehicle: saline
  T/C: 97 % of control
endpoint: mean survival time, dose: 0.03 mg/kg/injection, schedule: Q01DX010 (ip), vehicle: saline
  T/C: 86 % of control
endpoint: mean survival time, dose: 0.05 mg/kg/injection, schedule: Q01DX010 (ip), vehicle: water
  T/C: 100 % of control
endpoint: mean survival time, dose: 0.1 mg/kg/injection, schedule: Q01DX010 (ip), vehicle: water
  T/C: 156 % of control
endpoint: mean survival time, dose: 0.13 mg/kg/injection, schedule: Q02DX008 (ip), vehicle: saline
  T/C: 160 % of control and 259 % of control and 306 % of control
endpoint: mean survival time, dose: 0.15 mg/kg/injection, schedule: Q## X004 (ip), vehicle: saline
  T/C: 119 % of control and 181 % of control and 234 % of control
endpoint: mean survival time, dose: 0.16 mg/kg/injection, schedule: Q## X032 (ip), vehicle: saline
  T/C: 208 % of control
endpoint: mean survival time, dose: 0.2 mg/kg/injection, schedule: Q01DX010 (ip), vehicle: water
  T/C: 305 % of control
endpoint: mean survival time, dose: 0.2 mg/kg/injection, schedule: Q02DX008 (ip), vehicle: saline
  T/C: 221 % of control and 270 % of control and 290 % of control
endpoint: mean survival time, dose: 0.22 mg/kg/injection, schedule: Q## X004 (ip), vehicle: saline
  T/C: 231 % of control and 242 % of control and 270 % of control
endpoint: mean survival time, dose: 0.24 mg/kg/injection, schedule: Q## X032 (ip), vehicle: saline
  T/C: 187 % of control and 193 % of control and 212 % of control
endpoint: mean survival time, dose: 0.3 mg/kg/injection, schedule: Q02DX008 (ip), vehicle: saline
  T/C: 298 % of control and 302 % of control and 352 % of control
endpoint: mean survival time, dose: 0.35 mg/kg/injection, schedule: Q## X004 (ip), vehicle: saline
  T/C: 256 % of control and 273 % of control and 304 % of control
endpoint: mean survival time, dose: 0.36 mg/kg/injection, schedule: Q## X032 (ip), vehicle: saline
  T/C: 234 % of control and 241 % of control and 282 % of control
endpoint: mean survival time, dose: 0.44 mg/kg/injection, schedule: Q02DX008 (ip), vehicle: saline
  T/C: 154 % of control and 197 % of control and 358 % of control
endpoint: mean survival time, dose: 0.53 mg/kg/injection, schedule: Q## X004 (ip), vehicle: saline
  T/C: 270 % of control and 344 % of control and 366 % of control
endpoint: mean survival time, dose: 0.54 mg/kg/injection, schedule: Q## X032 (ip), vehicle: saline
  T/C: 274 % of control and 275 % of control and 335 % of control
endpoint: mean survival time, dose: 0.8 mg/kg/injection, schedule: Q## X004 (ip), vehicle: saline
  T/C: 283 % of control and 357 % of control
endpoint: mean survival time, dose: 0.8 mg/kg/injection, schedule: Q## X032 (ip), vehicle: saline
  T/C: 190 % of control and 218 % of control and 92 % of control
endpoint: mean survival time, dose: 1.2 mg/kg/injection, schedule: Q## X004 (ip), vehicle: saline
  T/C: 152 % of control
endpoint: mean survival time, dose: 1.2 mg/kg/injection, schedule: Q## X032 (ip), vehicle: saline
  T/C: 92 % of control
endpoint: mean survival time, dose: 1.45 mg/kg/injection, schedule: Q01DX001 (ip), vehicle: saline
  T/C: 188 % of control and 237 % of control
endpoint: mean survival time, dose: 1.45 mg/kg/injection, schedule: Q## X001 (ip), vehicle: saline
  T/C: 294 % of control
endpoint: mean survival time, dose: 1.5 mg/kg/injection, schedule: Q01DX001 (ip), vehicle: saline
  T/C: 159 % of control and 188 % of control and 212 % of control
endpoint: mean survival time, dose: 1.8 mg/kg/injection, schedule: Q## X004 (ip), vehicle: saline
  T/C: 100 % of control
endpoint: mean survival time, dose: 2.9 mg/kg/injection, schedule: Q01DX001 (ip), vehicle: saline
  T/C: 158 % of control
endpoint: mean survival time, dose: 2.9 mg/kg/injection, schedule: Q## X001 (ip), vehicle: saline
  T/C: 297 % of control
endpoint: mean survival time, dose: 26.0 micrograms/kg/injection, schedule: Q01DX010 (ip), vehicle: saline
  T/C: 123 % of control and 208 % of control
endpoint: mean survival time, dose: 27.0 micrograms/kg/injection, schedule: Q01DX015 (ip), vehicle: saline
  T/C: 167 % of control and 173 % of control
endpoint: mean survival time, dose: 40.0 micrograms/kg/injection, schedule: Q01DX015 (ip), vehicle: saline
  T/C: 161 % of control and 240 % of control
endpoint: mean survival time, dose: 60.0 micrograms/kg/injection, schedule: Q01DX015 (ip), vehicle: saline
  T/C: 221 % of control and 226 % of control
endpoint: mean survival time, dose: 90.0 micrograms/kg/injection, schedule: Q01DX015 (ip), vehicle: saline
  T/C: 215 % of control and 228 % of control and 260 % of control
endpoint: mean survival time, dose: 135.0 micrograms/kg/injection, schedule: Q01DX015 (ip), vehicle: saline
  T/C: 221 % of control and 281 % of control and 297 % of control
endpoint: mean survival time, dose: 200.0 micrograms/kg/injection, schedule: Q01DX015 (ip), vehicle: saline
  T/C: 196 % of control and 233 % of control and 340 % of control
endpoint: mean survival time, dose: 300.0 micrograms/kg/injection, schedule: Q01DX010 (ip), vehicle: saline
  T/C: 181 % of control and 240 % of control
endpoint: mean survival time, dose: 300.0 micrograms/kg/injection, schedule: Q01DX015 (ip), vehicle: saline
  T/C: 200 % of control

## COc1cc2c3c(c4cc(OC)c(OC)cc4c2cc1OC)CN1CCC[C@H]1C3
endpoint: mean survival time, dose: 3.9 mg/kg/injection, schedule: Q01DX010 (ip), vehicle: saline
  T/C: 115 % of control
endpoint: mean survival time, dose: 7.8 mg/kg/injection, schedule: Q01DX010 (ip), vehicle: saline
  T/C: 107 % of control

## CS(=O)(=O)OCCC(=O)N1CCN(C(=O)CCOS(C)(=O)=O)CC1
endpoint: mean survival time, dose: 25.0 mg/kg/injection, schedule: Q01DX010 (ip), vehicle: saline
  T/C: 160 % of control
[1]
  T/C: 150 % of control
[2]
  T/C: 270 % of control

## CCC(CCC(C)C1CCC2C3CC=C4CC(O)CCC4(C)C3CCC12C)C(C)C (configuration not stated) (tested in a mixture with another compound)
endpoint: mean survival time, dose: 12.0 mg/kg/injection, schedule: Q01DX010 (ip), vehicle: water
  T/C: 102 % of control
endpoint: mean survival time, dose: 25.0 mg/kg/injection, schedule: Q01DX010 (ip), vehicle: water
  T/C: 109 % of control
endpoint: mean survival time, dose: 25.0 mg/kg/injection, schedule: Q#A X020 (ip), vehicle: other
  T/C: 87 % of control
endpoint: mean survival time, dose: 50.0 mg/kg/injection, schedule: Q01DX010 (ip), vehicle: water
  T/C: 93 % of control

## Cc1nc(N)nc(N)c1-c1ccc(Cl)c(Cl)c1
endpoint: median survival time, dose: 0.75 mg/kg/injection, schedule: Q01DX009 (ip), vehicle: Klucel (hydroxypropylcellulose) (HPC)
  T/C: 102 % of control
endpoint: median survival time, dose: 1.5 mg/kg/injection, schedule: Q01DX009 (ip), vehicle: Klucel (hydroxypropylcellulose) (HPC)
  T/C: 119 % of control
endpoint: median survival time, dose: 3.0 mg/kg/injection, schedule: Q01DX009 (ip), vehicle: Klucel (hydroxypropylcellulose) (HPC)
  T/C: 107 % of control

## NC(Cn1ccc(=O)c(O)c1)C(=O)O (configuration not stated)
endpoint: mean survival time, dose: 118.0 mg/kg/injection, schedule: Q01DX010 (ip), vehicle: saline
  T/C: 92 % of control
endpoint: mean survival time, dose: 178.0 mg/kg/injection, schedule: Q01DX010 (ip), vehicle: saline
  T/C: 92 % of control
endpoint: mean survival time, dose: 267.0 mg/kg/injection, schedule: Q01DX010 (ip), vehicle: saline
  T/C: 92 % of control

## CC(=O)NCCCCCCCCCCNC(C)=O
[1]
  T/C: 100 % of control
[2]
  T/C: 100 % of control
endpoint: mean survival time, dose: 200.0 mg/kg/injection, schedule: Q01DX010 (ip), vehicle: saline
  T/C: 92 % of control
endpoint: mean survival time, dose: 400.0 mg/kg/injection, schedule: Q01DX010 (ip), vehicle: saline
  T/C: 96 % of control

## COc1cc2c(c3c1c(=O)c1ccccc1n3C)C=CC(C)(C)O2
endpoint: mean survival time, dose: 6.25 mg/kg/injection, schedule: Q01DX010 (ip), vehicle: other
  T/C: 108 % of control
endpoint: mean survival time, dose: 12.5 mg/kg/injection, schedule: Q01DX010 (ip), vehicle: other
  T/C: 108 % of control
endpoint: mean survival time, dose: 25.0 mg/kg/injection, schedule: Q01DX010 (ip), vehicle: other
  T/C: 116 % of control
endpoint: mean survival time, dose: 50.0 mg/kg/injection, schedule: Q01DX010 (ip), vehicle: other
  T/C: 91 % of control
endpoint: mean survival time, dose: 100.0 mg/kg/injection, schedule: Q01DX010 (ip), vehicle: other
  T/C: 116 % of control

## O=c1cccc2n1CC1CNC[C@H]2C1
endpoint: mean survival time, dose: 0.78 mg/kg/injection, schedule: Q01DX010 (ip), vehicle: saline
  T/C: 100 % of control
endpoint: mean survival time, dose: 1.56 mg/kg/injection, schedule: Q01DX010 (ip), vehicle: saline
  T/C: 100 % of control
endpoint: mean survival time, dose: 3.13 mg/kg/injection, schedule: Q01DX010 (ip), vehicle: saline
  T/C: 103 % of control
endpoint: mean survival time, dose: 6.25 mg/kg/injection, schedule: Q01DX010 (ip), vehicle: saline
  T/C: 100 % of control

## NCCc1ccccc1
endpoint: mean survival time, dose: 15.6 mg/kg/injection, schedule: Q01DX010 (ip), vehicle: saline
  T/C: 96 % of control
endpoint: mean survival time, dose: 31.3 mg/kg/injection, schedule: Q01DX010 (ip), vehicle: saline
  T/C: 92 % of control
endpoint: mean survival time, dose: 62.5 mg/kg/injection, schedule: Q01DX010 (ip), vehicle: saline
  T/C: 100 % of control

## CC1CCC2(NC1)OC1CC3C4CCC5CC(OC6OC(CO)C(OC7OC(CO)C(O)C(OC8OCC(O)C(O)C8O)C7OC7OC(CO)C(O)C(O)C7O)C(O)C6O)CCC5(C)C4CCC3(C)C1C2C (configuration not stated)
endpoint: mean survival time, dose: 5.0 mg/kg/injection, schedule: Q01DX010 (sc), vehicle: steriod suspending solution
  T/C: 100 % of control
endpoint: mean survival time, dose: 10.0 mg/kg/injection, schedule: Q01DX010 (sc), vehicle: steriod suspending solution
  T/C: 100 % of control

## C=C1c2[nH]c3ccccc3c2CN2CCC1/C(=C/C)C2 (configuration not stated)
endpoint: mean survival time, dose: 0.13 mg/kg/injection, schedule: Q01DX010 (ip), vehicle: saline
  T/C: 96 % of control
endpoint: mean survival time, dose: 0.25 mg/kg/injection, schedule: Q01DX010 (ip), vehicle: saline
  T/C: 93 % of control
endpoint: mean survival time, dose: 0.5 mg/kg/injection, schedule: Q01DX010 (ip), vehicle: saline
  T/C: 96 % of control
endpoint: mean survival time, dose: 1.0 mg/kg/injection, schedule: Q01DX010 (ip), vehicle: saline
  T/C: 100 % of control

## COc1ccc(Cc2nccc3cc(OC)c(OC)cc23)cc1OC
endpoint: mean survival time, dose: 10.0 mg/kg/injection, schedule: Q01DX010 (ip), vehicle: saline
  T/C: 100 % of control
endpoint: mean survival time, dose: 20.0 mg/kg/injection, schedule: Q01DX010 (ip), vehicle: saline
  T/C: 100 % of control
endpoint: mean survival time, dose: 40.0 mg/kg/injection, schedule: Q01DX010 (ip), vehicle: saline
  T/C: 100 % of control
endpoint: mean survival time, dose: 80.0 mg/kg/injection, schedule: Q01DX010 (ip), vehicle: saline
  T/C: 100 % of control

From PubChem BioAssay AID316 (DTP/NCI, 2004)
